Measured values as given in patent US20260116920A1, “HUMAN TRANSFERRIN RECEPTOR BINDING PEPTIDE” (PEPTIDREAM INC., priority 2021, published 2026).
Positions of bridges follow the written chain, without caps; N, C: chain ends. Non-standard residues stand in square brackets, D forms with d. Residues, ends and D or L forms follow the SMILES beside them. *: point of attachment. Trp(1-CH2COOH) = N[C@@H](Cc1cn(CC(=O)O)c2ccccc12)C(=O)O; Phe(3-COOH) = N[C@@H](Cc1cccc(C(=O)O)c1)C(=O)O; NH(CH2CH2O)8Me = COCCOCCOCCOCCOCCOCCOCCOCCN*; NMePhe(3-Cl) = CN[C@@H](Cc1cccc(Cl)c1)C(=O)O; 3Pal(6-NH2) = Nc1ccc(C[C@H](N)C(=O)O)cn1; NMeY = CN[C@@H](Cc1ccc(O)cc1)C(=O)O; 3Pal = N[C@@H](Cc1cccnc1)C(=O)O; 4Pal = N[C@@H](Cc1ccncc1)C(=O)O; PEG4 = NCCOCCOCCOCCOCCC(=O)O; Carboxymethyl = O=C(O)C*

What follows are compounds tested against T1, human transferrin receptor (hTfR) (Homo sapiens, UniProt P02786) (assay: Evaluation of molecular interaction between transferrin receptor (hTfR) and peptide using surface plasmon resonance (SPR)). Details: surface plasmon resonance, binding to hTfR; KD class symbol; read-out: SPR (KD value).
T1 construct: made in house
T1 sequence (P02786 89-760 limits assumed): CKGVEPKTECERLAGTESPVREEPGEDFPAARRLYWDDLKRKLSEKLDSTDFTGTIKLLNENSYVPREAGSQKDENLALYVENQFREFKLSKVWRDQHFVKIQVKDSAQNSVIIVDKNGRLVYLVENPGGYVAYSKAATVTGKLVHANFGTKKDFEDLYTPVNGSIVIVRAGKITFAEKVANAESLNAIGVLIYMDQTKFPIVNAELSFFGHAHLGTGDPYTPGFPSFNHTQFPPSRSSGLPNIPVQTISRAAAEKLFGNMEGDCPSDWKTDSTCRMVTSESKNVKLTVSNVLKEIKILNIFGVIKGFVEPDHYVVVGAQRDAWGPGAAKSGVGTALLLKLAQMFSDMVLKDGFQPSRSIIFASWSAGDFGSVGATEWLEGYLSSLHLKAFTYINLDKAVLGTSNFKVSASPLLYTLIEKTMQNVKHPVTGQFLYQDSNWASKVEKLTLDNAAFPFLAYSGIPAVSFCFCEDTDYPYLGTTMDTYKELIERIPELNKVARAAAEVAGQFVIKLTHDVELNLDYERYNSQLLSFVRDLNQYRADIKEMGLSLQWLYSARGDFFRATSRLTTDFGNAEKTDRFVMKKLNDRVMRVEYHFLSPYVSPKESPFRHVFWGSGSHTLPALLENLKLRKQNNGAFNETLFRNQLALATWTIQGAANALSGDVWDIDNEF
Type: binding
How it was run: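 Recombinant human TfR dimer (0.5 μM) was captured on a Ni-charged NTA chip and amine-coupled with EDC/NHS, then ethanolamine-capped. Peptides at 5–100 nM in HEPES pH 8.0 buffer with 150 mM NaCl, 0.05% Tween 20, 0.1% BSA and 1.0% DMSO were run by single-cycle kinetics; KD came from least-squares curve fitting.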

SMILES	Kd [nM]
CC[C@H](C)[C@@H]1NC(=O)[C@H](Cc2cccnc2)NC(=O)[C@H](Cc2ccc(O)cc2)NC(=O)[C@H](CC(N)=O)NC(=O)[C@H](Cc2cn(CC(=O)O)c3ccccc23)NC(=O)[C@H](C(C)C)NC(=O)[C@H](Cc2cccc(Cl)c2)N(C)C(=O)[C@H](C(C)C)NC(=O)[C@H](C)NC(=O)CSC[C@@H](C(=O)NCCOCCOCCOCCOCCC(N)=O)NC(=O)[C@H](Cc2ccc(O)cc2)N(C)C(=O)[C@H](Cc2cccc(C(=O)O)c2)NC(=O)[C@H](CCCNC(=N)N)NC(=O)[C@H](CCCNC(=N)N)NC(=O)[C@H]([C@@H](C)CC)NC1=O [compound 74] ({CH2CO}-AV[NMePhe(3-Cl)]V[Trp(1-CH2COOH)]NY[3Pal]IIRR[Phe(3-COOH)][NMeY]C[PEG4]-NH2; thioether N-15)	1 to 100
CC[C@H](C)[C@@H]1NC(=O)[C@H](Cc2ccc(OCC(=O)O)cc2)NC(=O)[C@H](Cc2ccc(O)cc2)NC(=O)[C@H](CC(N)=O)NC(=O)[C@H](Cc2cn(CC(=O)O)c3ccccc23)NC(=O)[C@H](C(C)C)NC(=O)[C@H](Cc2cccc(Cl)c2)N(C)C(=O)[C@H](C(C)C)NC(=O)[C@H](C)NC(=O)CSC[C@@H](C(=O)NCCOCCOCCOCCOCCC(N)=O)NC(=O)[C@H](Cc2ccc(O)cc2)N(C)C(=O)[C@H](Cc2cccc(C(=O)O)c2)NC(=O)[C@H](CCCNC(=N)N)NC(=O)[C@H](CCCNC(=N)N)NC(=O)[C@H]([C@@H](C)CC)NC1=O [compound 75]	1 to 100
CC[C@H](C)[C@@H]1NC(=O)[C@H](Cc2ccc(OCC(=O)O)cc2)NC(=O)[C@H](Cc2ccc(O)cc2)NC(=O)[C@H](CC(N)=O)NC(=O)[C@H](Cc2cn(CC(=O)O)c3ccccc23)NC(=O)[C@H](C(C)C)NC(=O)[C@H](Cc2cccc(Cl)c2)N(C)C(=O)[C@H](C(C)C)NC(=O)[C@H](C)NC(=O)CSC[C@@H](C(=O)NCCOCCOCCOCCOCCC(N)=O)NC(=O)[C@H](Cc2ccc(O)cc2)N(C)C(=O)[C@H](Cc2ccncc2)NC(=O)[C@H](CCCNC(=N)N)NC(=O)[C@H](CCCNC(=N)N)NC(=O)[C@H]([C@@H](C)CC)NC1=O [compound 76]	1 to 100
CC[C@H](C)[C@@H]1NC(=O)[C@H](Cc2ccc(OC)cc2)NC(=O)[C@H](Cc2ccc(O)cc2)NC(=O)[C@H](CC(N)=O)NC(=O)[C@H](Cc2cn(CC(=O)O)c3ccccc23)NC(=O)[C@H](C(C)C)NC(=O)[C@H](Cc2cccc(Cl)c2)N(C)C(=O)[C@H](C(C)C)NC(=O)[C@H](C)NC(=O)CSC[C@@H](C(=O)NCCOCCOCCOCCOCCC(N)=O)NC(=O)[C@H](Cc2ccc(O)cc2)N(C)C(=O)[C@H](Cc2cccc(C(=O)O)c2)NC(=O)[C@H](CCC(=O)NCCOCCOCCOCCOCCOCCOCCOCCOC)NC(=O)[C@H](CCCNC(=N)N)NC(=O)[C@H]([C@@H](C)CC)NC1=O [compound 77] ({CH2CO}-AV[NMePhe(3-Cl)]V[Trp(1-CH2COOH)]NYY(Me)IIRE(NH(CH2CH2O)8Me)[Phe(3-COOH)][NMeY]C[PEG4]-NH2; thioether N-15)	1 to 100
CC[C@H](C)[C@@H]1NC(=O)[C@H](Cc2ccc(OC)cc2)NC(=O)[C@H](Cc2ccc(O)cc2)NC(=O)[C@H](CC(N)=O)NC(=O)[C@H](Cc2cn(CC(=O)O)c3ccccc23)NC(=O)[C@H](C(C)C)NC(=O)[C@H](Cc2cccc(Cl)c2)N(C)C(=O)[C@H](C(C)C)NC(=O)[C@H](C)NC(=O)CSC[C@@H](C(=O)NCCOCCOCCOCCOCCC(N)=O)NC(=O)[C@H](Cc2ccc(O)cc2)N(C)C(=O)[C@H](Cc2ccncc2)NC(=O)[C@H](CCC(=O)NCCOCCOCCOCCOCCOCCOCCOCCOC)NC(=O)[C@H](CCCNC(=N)N)NC(=O)[C@H]([C@@H](C)CC)NC1=O [compound 78] ({CH2CO}-AV[NMePhe(3-Cl)]V[Trp(1-CH2COOH)]NYY(Me)IIRE(NH(CH2CH2O)8Me)[4Pal][NMeY]C[PEG4]-NH2; thioether N-15)	1 to 100
CC[C@H](C)[C@@H]1NC(=O)[C@H](Cc2cccnc2)NC(=O)[C@H](Cc2ccc(N)nc2)NC(=O)[C@H](CC(N)=O)NC(=O)[C@H](Cc2cn(CC(=O)O)c3ccccc23)NC(=O)[C@H](C(C)C)NC(=O)[C@H](Cc2cccc(Cl)c2)N(C)C(=O)[C@H](C(C)C)NC(=O)[C@H](C)NC(=O)CSC[C@@H](C(=O)NCCOCCOCCOCCOCCC(N)=O)NC(=O)[C@H](Cc2ccc(O)cc2)N(C)C(=O)[C@H](Cc2cccc(C(=O)O)c2)NC(=O)[C@H](CCCNC(=N)N)NC(=O)[C@H](CCCNC(=N)N)NC(=O)[C@H]([C@@H](C)CC)NC1=O [compound 79] ({CH2CO}-AV[NMePhe(3-Cl)]V[Trp(1-CH2COOH)]N[3Pal(6-NH2)][3Pal]IIRR[Phe(3-COOH)][NMeY]C[PEG4]-NH2; thioether N-15)	1 to 100
CC[C@H](C)[C@@H]1NC(=O)[C@H](Cc2ccc(OCC(=O)O)cc2)NC(=O)[C@H](Cc2ccc(N)nc2)NC(=O)[C@H](CC(N)=O)NC(=O)[C@H](Cc2cn(CC(=O)O)c3ccccc23)NC(=O)[C@H](C(C)C)NC(=O)[C@H](Cc2cccc(Cl)c2)N(C)C(=O)[C@H](C(C)C)NC(=O)[C@H](C)NC(=O)CSC[C@@H](C(=O)NCCOCCOCCOCCOCCC(N)=O)NC(=O)[C@H](Cc2ccc(O)cc2)N(C)C(=O)[C@H](Cc2ccncc2)NC(=O)[C@H](CCCNC(=N)N)NC(=O)[C@H](CCCNC(=N)N)NC(=O)[C@H]([C@@H](C)CC)NC1=O [compound 80]	1 to 100
CC[C@H](C)[C@@H]1NC(=O)[C@H](Cc2ccc(OCC(=O)O)cc2)NC(=O)[C@H](Cc2ccc(N)nc2)NC(=O)[C@H](CC(N)=O)NC(=O)[C@H](Cc2cn(CC(=O)O)c3ccccc23)NC(=O)[C@H](C(C)C)NC(=O)[C@H](Cc2cccc(Cl)c2)N(C)C(=O)[C@H](C(C)C)NC(=O)[C@H](C)NC(=O)CSC[C@@H](C(=O)NCCOCCOCCOCCOCCC(N)=O)NC(=O)[C@H](Cc2ccc(O)cc2)N(C)C(=O)[C@H](Cc2cccc(C(=O)O)c2)NC(=O)[C@H](CCCNC(=N)N)NC(=O)[C@H](CCCNC(=N)N)NC(=O)[C@H]([C@@H](C)CC)NC1=O [compound 81] ({CH2CO}-AV[NMePhe(3-Cl)]V[Trp(1-CH2COOH)]N[3Pal(6-NH2)]Y(Carboxymethyl)IIRR[Phe(3-COOH)][NMeY]C[PEG4]-NH2; thioether N-15)	1 to 100
CC[C@H](C)[C@@H]1NC(=O)[C@H](Cc2ccc(OCC(=O)O)cc2)NC(=O)[C@H](Cc2ccc(O)cc2)NC(=O)[C@H](CC(N)=O)NC(=O)[C@H](Cc2cn(CC(=O)O)c3ccccc23)NC(=O)[C@H](C(C)C)NC(=O)[C@H](Cc2cccc(Cl)c2)N(C)C(=O)[C@H](C(C)C)NC(=O)[C@H](C)NC(=O)CSC[C@@H](C(=O)NCCOCCOCCOCCOCCC(N)=O)NC(=O)[C@H](Cc2ccc(O)cc2)N(C)C(=O)[C@H](Cc2ccncc2)NC(=O)[C@H](CCC(=O)NCCOCCOCCOCCOCCOCCOCCOCCOC)NC(=O)[C@H](CCCNC(=N)N)NC(=O)[C@H]([C@@H](C)CC)NC1=O [compound 82] ({CH2CO}-AV[NMePhe(3-Cl)]V[Trp(1-CH2COOH)]NYY(Carboxymethyl)IIRE(NH(CH2CH2O)8Me)[4Pal][NMeY]C[PEG4]-NH2; thioether N-15)	1 to 100
CC[C@H](C)[C@@H]1NC(=O)[C@H](Cc2cccnc2)NC(=O)[C@H](Cc2ccc(O)cc2)NC(=O)[C@H](CC(N)=O)NC(=O)[C@H](Cc2cn(CC(=O)O)c3ccccc23)NC(=O)[C@H](C(C)C)NC(=O)[C@H](Cc2cccc(Cl)c2)N(C)C(=O)[C@H](C(C)C)NC(=O)[C@H](C)NC(=O)CSC[C@@H](C(=O)NCCOCCOCCOCCOCCC(N)=O)NC(=O)[C@H](Cc2ccc(O)cc2)N(C)C(=O)[C@H](Cc2ccncc2)NC(=O)[C@H](CCC(=O)NCCOCCOCCOCCOCCOCCOCCOCCOC)NC(=O)[C@H](CCCNC(=N)N)NC(=O)[C@H]([C@@H](C)CC)NC1=O [compound 83] ({CH2CO}-AV[NMePhe(3-Cl)]V[Trp(1-CH2COOH)]NY[3Pal]IIRE(NH(CH2CH2O)8Me)[4Pal][NMeY]C[PEG4]-NH2; thioether N-15)	1 to 100
CC[C@H](C)[C@@H]1NC(=O)[C@H](Cc2cccnc2)NC(=O)[C@H](Cc2ccc(O)cc2)NC(=O)[C@H](CC(N)=O)NC(=O)[C@H](Cc2cn(CC(=O)O)c3ccccc23)NC(=O)[C@H](C(C)C)NC(=O)[C@H](Cc2cccc(Cl)c2)N(C)C(=O)[C@H](C(C)C)NC(=O)[C@H](C)NC(=O)CSC[C@@H](C(=O)NCCOCCOCCOCCOCCC(N)=O)NC(=O)[C@H](Cc2ccc(O)cc2)N(C)C(=O)[C@H](Cc2cccc(C(=O)O)c2)NC(=O)[C@H](CCC(=O)NCCOCCOCCOCCOCCOCCOCCOCCOC)NC(=O)[C@H](CCCNC(=N)N)NC(=O)[C@H]([C@@H](C)CC)NC1=O [compound 84] ({CH2CO}-AV[NMePhe(3-Cl)]V[Trp(1-CH2COOH)]NY[3Pal]IIRE(NH(CH2CH2O)8Me)[Phe(3-COOH)][NMeY]C[PEG4]-NH2; thioether N-15)	1 to 100
CC[C@H](C)[C@@H]1NC(=O)[C@H](Cc2cccnc2)NC(=O)[C@H](Cc2ccc(N)nc2)NC(=O)[C@H](CC(N)=O)NC(=O)[C@H](Cc2cn(CC(=O)O)c3ccccc23)NC(=O)[C@H](C(C)C)NC(=O)[C@H](Cc2cccc(Cl)c2)N(C)C(=O)[C@H](C(C)C)NC(=O)[C@H](C)NC(=O)CSC[C@@H](C(=O)NCCOCCOCCOCCOCCC(N)=O)NC(=O)[C@H](Cc2ccc(O)cc2)N(C)C(=O)[C@H](Cc2cccc(C(=O)O)c2)NC(=O)[C@H](CCC(=O)NCCOCCOCCOCCOCCOCCOCCOCCOC)NC(=O)[C@H](CCCNC(=N)N)NC(=O)[C@H]([C@@H](C)CC)NC1=O [compound 85] ({CH2CO}-AV[NMePhe(3-Cl)]V[Trp(1-CH2COOH)]N[3Pal(6-NH2)][3Pal]IIRE(NH(CH2CH2O)8Me)[Phe(3-COOH)][NMeY]C[PEG4]-NH2; thioether N-15)	100 to 1000
CC[C@H](C)[C@@H]1NC(=O)[C@H](Cc2cccnc2)NC(=O)[C@H](Cc2ccc(N)nc2)NC(=O)[C@H](CC(N)=O)NC(=O)[C@H](Cc2cn(CC(=O)O)c3ccccc23)NC(=O)[C@H](C(C)C)NC(=O)[C@H](Cc2cccc(Cl)c2)N(C)C(=O)[C@H](C(C)C)NC(=O)[C@H](C)NC(=O)CSC[C@@H](C(=O)NCCOCCOCCOCCOCCC(N)=O)NC(=O)[C@H](Cc2ccc(O)cc2)N(C)C(=O)[C@H](Cc2ccncc2)NC(=O)[C@H](CCC(=O)NCCOCCOCCOCCOCCOCCOCCOCCOC)NC(=O)[C@H](CCCNC(=N)N)NC(=O)[C@H]([C@@H](C)CC)NC1=O [compound 86] ({CH2CO}-AV[NMePhe(3-Cl)]V[Trp(1-CH2COOH)]N[3Pal(6-NH2)][3Pal]IIRE(NH(CH2CH2O)8Me)[4Pal][NMeY]C[PEG4]-NH2; thioether N-15)	100 to 1000
